Data reported in patent US20030104507A1, “Method for detection of ATP” (priority 2001, published 2003).

Legend:
[1] = target: native firefly luciferase (Photinus pyralis, UniProt P08659); conditions: cited from earlier work
[2] = test system: ATPase activity endogenous to L929 cell lysate; experiment: Detergent inhibition of ATPase endogenous to L929 cell lysate (ATP remaining by luciferase luminescence, 22° C.); type: biochemical; set-up: key to Relative ATPase Activity, slope det/slope lysate: slope with detergent / slope without; ≥1.0 = 100% activity, 0.5 = 50%
In short: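 L929 lysate (1.5×10^5 cells/ml, four freeze–thaw cycles) held with detergent at final 1.0, 0.5, 0.1 or 0.05% at 22° C; remaining ATP read over time with luciferase-luciferin reagent (100 μM luciferin, 10 mM MgSO4, pH 7.5). Relative ATPase activity = slope of log % ATP remaining vs time with detergent ÷ slope for lysate-only control.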

[3] = 0.50 percent detergent, second 0.50 line of DTAB (assayed on two days)
[4] = Example 2, 0.02% detergent, 5 min
[5] = Example 2, 0.02% detergent, 75 min
[6] = Example 2, 0.02% detergent, 169 min
[7] = Example 2, 0.02% detergent, 222 min
[8] = Example 2, 0.02% detergent, 260 min
[9] = Example 2, 0.5% detergent, 5 min
[10] = Example 2, 0.5% detergent, 75 min
[11] = Example 2, 0.5% detergent, 169 min
[12] = Example 2, 0.5% detergent, 222 min
[13] = Example 2, 0.5% detergent, 260 min

native firefly luciferase, sequence (P08659 whole entry): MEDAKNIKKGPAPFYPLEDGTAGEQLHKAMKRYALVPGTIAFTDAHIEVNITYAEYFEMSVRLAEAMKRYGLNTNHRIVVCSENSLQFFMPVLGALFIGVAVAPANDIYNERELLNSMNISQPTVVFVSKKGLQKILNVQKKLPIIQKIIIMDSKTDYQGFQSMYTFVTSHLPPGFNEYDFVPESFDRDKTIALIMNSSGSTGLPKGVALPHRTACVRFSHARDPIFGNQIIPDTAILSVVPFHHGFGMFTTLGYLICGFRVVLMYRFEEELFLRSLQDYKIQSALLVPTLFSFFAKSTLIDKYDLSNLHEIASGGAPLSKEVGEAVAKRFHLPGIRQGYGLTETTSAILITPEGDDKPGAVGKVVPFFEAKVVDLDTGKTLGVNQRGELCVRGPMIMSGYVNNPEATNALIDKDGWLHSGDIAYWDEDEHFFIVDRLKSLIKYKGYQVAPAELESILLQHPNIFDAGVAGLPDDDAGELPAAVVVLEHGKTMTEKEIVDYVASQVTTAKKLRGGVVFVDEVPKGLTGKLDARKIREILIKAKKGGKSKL

SMILES: CCCCCCCCCCCC[N+](C)(C)C.[Br-] [DTAB, dodecyltrimethylammonium bromide]
- effect on native firefly luciferase [1]: inactivated
- Relative ATPase Activity, slope det/slope lysate ([2]; 0.02 percent detergent): 0.884
- Slope (log percent ATP remaining vs time in minutes) ([2]; 0.02 percent detergent): −0.0056
- Average Relative Light Unit Values ([2]; 0.05% detergent, 5 min): 6487.93 rlu
- Percent ATP Remaining ([2]; 0.05% detergent, 5 min): 100%
- Average Relative Light Unit Values ([2]; 0.05% detergent, 75 min): 3138.81 rlu
- Percent ATP Remaining ([2]; 0.05% detergent, 75 min): 48.4%
- Average Relative Light Unit Values ([2]; 0.05% detergent, 169 min): 1496.01 rlu
- Percent ATP Remaining ([2]; 0.05% detergent, 169 min): 23.1%
- Average Relative Light Unit Values ([2]; 0.05% detergent, 222 min): 943.40 rlu
- Percent ATP Remaining ([2]; 0.05% detergent, 222 min): 14.5%
- Average Relative Light Unit Values ([2]; 0.05% detergent, 260 min): 638.30 rlu
- Percent ATP Remaining ([2]; 0.05% detergent, 260 min): 9.8%
- Relative ATPase Activity, slope det/slope lysate ([2]; 0.05 percent detergent): 0.690
- Slope (log percent ATP remaining vs time in minutes) ([2]; 0.05 percent detergent): −0.0039
- Average Relative Light Unit Values ([2]; 0.1% detergent, 5 min): 6991.01 rlu
- Percent ATP Remaining ([2]; 0.1% detergent, 5 min): 100%
- Average Relative Light Unit Values ([2]; 0.1% detergent, 75 min): 4753.46 rlu
- Percent ATP Remaining ([2]; 0.1% detergent, 75 min): 68.0%
- Average Relative Light Unit Values ([2]; 0.1% detergent, 169 min): 2737.36 rlu
- Percent ATP Remaining ([2]; 0.1% detergent, 169 min): 39.2%
- Average Relative Light Unit Values ([2]; 0.1% detergent, 222 min): 1950.95 rlu
- Percent ATP Remaining ([2]; 0.1% detergent, 222 min): 27.9%
- Average Relative Light Unit Values ([2]; 0.1% detergent, 260 min): 1408.18 rlu
- Percent ATP Remaining ([2]; 0.1% detergent, 260 min): 20.1%
- Relative ATPase Activity, slope det/slope lysate ([2]; 0.10 percent detergent): 0.480
- Slope (log percent ATP remaining vs time in minutes) ([2]; 0.10 percent detergent): −0.0027
- Percent ATP Remaining ([2]; 0.5% (1), 5 min): 100%
- Percent ATP Remaining ([2]; 0.5% (1), 75 min): 90.6%
- Percent ATP Remaining ([2]; 0.5% (1), 169 min): 88.0%
- Percent ATP Remaining ([2]; 0.5% (1), 222 min): 87.3%
- Percent ATP Remaining ([2]; 0.5% (1), 260 min): 80.2%
- Percent ATP Remaining ([2]; 0.5% (2), 5 min): 100%
- Percent ATP Remaining ([2]; 0.5% (2), 75 min): 95.8%
- Percent ATP Remaining ([2]; 0.5% (2), 169 min): 90.3%
- Percent ATP Remaining ([2]; 0.5% (2), 222 min): 88.0%
- Percent ATP Remaining ([2]; 0.5% (2), 260 min): 85.0%
- Average Relative Light Unit Values ([2]; 0.5% (day 1), 5 min): 5630.61 rlu
- Average Relative Light Unit Values ([2]; 0.5% (day 1), 75 min): 5100.09 rlu
- Average Relative Light Unit Values ([2]; 0.5% (day 1), 169 min): 4957.48 rlu
- Average Relative Light Unit Values ([2]; 0.5% (day 1), 222 min): 4916.46 rlu
- Average Relative Light Unit Values ([2]; 0.5% (day 1), 260 min): 4515.20 rlu
- Average Relative Light Unit Values ([2]; 0.5% (day 2), 5 min): 6617.08 rlu
- Average Relative Light Unit Values ([2]; 0.5% (day 2), 75 min): 6341.09 rlu
- Average Relative Light Unit Values ([2]; 0.5% (day 2), 169 min): 5977.33 rlu
- Average Relative Light Unit Values ([2]; 0.5% (day 2), 222 min): 5824.18 rlu
- Average Relative Light Unit Values ([2]; 0.5% (day 2), 260 min): 5622.12 rlu
- Relative ATPase Activity, slope det/slope lysate ([2]; 0.50 percent detergent): 0.055
- Slope (log percent ATP remaining vs time in minutes) ([2]; 0.50 percent detergent): −0.0003
- Relative ATPase Activity, slope det/slope lysate [2, 3]: 0.048
- Slope (log percent ATP remaining vs time in minutes) [2, 3]: −0.0003
- Average Relative Light Unit Values ([2]; 1.0% detergent, 5 min): 800.61 rlu
- Percent ATP Remaining ([2]; 1.0% detergent, 5 min): 100%
- Average Relative Light Unit Values ([2]; 1.0% detergent, 75 min): 693.13 rlu
- Percent ATP Remaining ([2]; 1.0% detergent, 75 min): 86.6%
- Average Relative Light Unit Values ([2]; 1.0% detergent, 169 min): 649.41 rlu
- Percent ATP Remaining ([2]; 1.0% detergent, 169 min): 81.1%
- Average Relative Light Unit Values ([2]; 1.0% detergent, 222 min): 671.03 rlu
- Percent ATP Remaining ([2]; 1.0% detergent, 222 min): 83.8%
- Average Relative Light Unit Values ([2]; 1.0% detergent, 260 min): 645.40 rlu
- Percent ATP Remaining ([2]; 1.0% detergent, 260 min): 80.6%
- Relative ATPase Activity, slope det/slope lysate ([2]; 1.00 percent detergent): 0.057
- Slope (log percent ATP remaining vs time in minutes) ([2]; 1.00 percent detergent): −0.0003
- Average Relative Light Unit Values [2, 4]: 5870.43 rlu
- Percent ATP Remaining [2, 4]: 100.00%
- Average Relative Light Unit Values [2, 5]: 1997.09 rlu
- Percent ATP Remaining [2, 5]: 34.02%
- Average Relative Light Unit Values [2, 6]: 435.05 rlu
- Percent ATP Remaining [2, 6]: 7.41%
- Average Relative Light Unit Values [2, 7]: 329.83 rlu
- Percent ATP Remaining [2, 7]: 5.62%
- Average Relative Light Unit Values [2, 8]: 227.72 rlu
- Percent ATP Remaining [2, 8]: 3.88%
- Average Relative Light Unit Values [2, 9]: 5189.8 rlu
- Percent ATP Remaining [2, 9]: 100.00%
- Average Relative Light Unit Values [2, 10]: 4564.65 rlu
- Percent ATP Remaining [2, 10]: 87.95%
- Average Relative Light Unit Values [2, 11]: 4111.89 rlu
- Percent ATP Remaining [2, 11]: 79.23%
- Average Relative Light Unit Values [2, 12]: 4230.51 rlu
- Percent ATP Remaining [2, 12]: 81.52%
- Average Relative Light Unit Values [2, 13]: 4267.32 rlu
- Percent ATP Remaining [2, 13]: 82.23%
- concentrations which resulted in a 25% or greater decrease in the relative ATPase activity ([2]; compared to reactions in the absence of detergent): ≥ 0.05%
